From ChEMBL document CHEMBL2021760, “4-(1-Phenyl-1H-pyrazol-4-yl)quinolines as novel, selective and brain penetrant metabotropic glutamate receptor 4 positive allosteric modulators” (Bioorg Med Chem Lett, 2012)
In brackets after ≈: the same amount, converted by molar mass.

Columns and labels:
[1] = target: T1, Metabotropic glutamate receptor 4 (Homo sapiens, UniProt Q14833); experiment: Positive allosteric modulation of human mGlu4 receptor expressed in BHK cells assessed as potentiation of glutamate-induced calcium mobilization by FLIPR analysis; type: functional, cell-based
T1 sequence (Q14833 whole entry): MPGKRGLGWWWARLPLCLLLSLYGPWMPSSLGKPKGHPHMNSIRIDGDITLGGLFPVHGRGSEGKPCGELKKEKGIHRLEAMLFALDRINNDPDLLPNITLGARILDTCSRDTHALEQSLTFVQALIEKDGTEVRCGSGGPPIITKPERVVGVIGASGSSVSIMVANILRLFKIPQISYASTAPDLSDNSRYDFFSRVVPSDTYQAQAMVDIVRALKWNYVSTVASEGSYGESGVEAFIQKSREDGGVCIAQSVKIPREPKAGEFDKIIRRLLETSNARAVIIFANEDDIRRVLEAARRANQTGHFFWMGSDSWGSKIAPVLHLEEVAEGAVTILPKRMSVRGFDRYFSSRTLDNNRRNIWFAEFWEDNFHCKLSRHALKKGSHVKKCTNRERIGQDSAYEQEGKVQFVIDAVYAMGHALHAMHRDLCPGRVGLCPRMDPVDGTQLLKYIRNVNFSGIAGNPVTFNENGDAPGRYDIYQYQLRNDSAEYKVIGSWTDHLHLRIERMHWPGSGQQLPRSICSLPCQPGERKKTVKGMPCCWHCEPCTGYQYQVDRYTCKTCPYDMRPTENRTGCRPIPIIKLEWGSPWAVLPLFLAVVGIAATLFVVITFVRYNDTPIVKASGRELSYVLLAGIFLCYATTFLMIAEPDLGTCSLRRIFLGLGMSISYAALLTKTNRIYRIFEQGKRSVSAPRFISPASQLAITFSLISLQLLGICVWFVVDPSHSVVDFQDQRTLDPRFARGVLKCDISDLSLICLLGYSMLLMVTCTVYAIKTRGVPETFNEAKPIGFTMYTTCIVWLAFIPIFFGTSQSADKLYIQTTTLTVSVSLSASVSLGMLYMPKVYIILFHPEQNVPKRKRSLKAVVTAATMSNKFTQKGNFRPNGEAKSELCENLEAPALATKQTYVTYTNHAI

[2] = target: T1, Metabotropic glutamate receptor 4; experiment: Positive allosteric modulation of human mGlu4 receptor expressed in BHK cells assessed as potentiation of glutamate-induced calcium mobilization by FLIPR analysis relative to PHCCC; type: functional, cell-based
[3] = Kinetic solubility of the compound at pH 7.4; type: physicochemical; conditions: buffer, read-out: Kinetic_solubility
Cerebrospinal fluid = experiment: Drug uptake in rat CSF at 10 mg/kg, po; type: ADME, organism-based; design: dose 10 mg/kg, route oral; conditions: in vivo
CYP3A4 = CYP3A4 (Homo sapiens, UniProt P08684); experiment: Inhibition of CYP3A4 at 5 uM; type: ADME
Sequence of CYP3A4 (P08684 whole entry): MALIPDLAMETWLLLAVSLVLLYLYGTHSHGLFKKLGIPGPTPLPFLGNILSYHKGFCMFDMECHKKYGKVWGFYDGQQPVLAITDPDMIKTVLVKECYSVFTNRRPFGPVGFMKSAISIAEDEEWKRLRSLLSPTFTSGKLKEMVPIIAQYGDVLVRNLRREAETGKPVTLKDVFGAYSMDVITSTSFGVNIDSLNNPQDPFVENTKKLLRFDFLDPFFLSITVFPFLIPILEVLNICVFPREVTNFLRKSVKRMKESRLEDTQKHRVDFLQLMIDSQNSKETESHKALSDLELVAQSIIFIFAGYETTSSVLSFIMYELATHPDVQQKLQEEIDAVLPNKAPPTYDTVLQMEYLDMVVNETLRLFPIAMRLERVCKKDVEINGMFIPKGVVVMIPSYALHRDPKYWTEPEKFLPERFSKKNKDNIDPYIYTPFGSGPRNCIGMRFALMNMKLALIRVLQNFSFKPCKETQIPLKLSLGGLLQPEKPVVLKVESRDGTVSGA

[4] = Ratio of drug level in brain to plasma in rat at 10 mg/kg, po; type: ADME, organism-based; design: dose 10 mg/kg, route oral; conditions: read-out: BPR
[5] = Kinetic solubility of the compound at pH 4.0; type: physicochemical; conditions: buffer, read-out: Kinetic_solubility
[6] = Lipophilicity, log D of compound at pH 7.4; type: physicochemical; conditions: buffer
CYP2B6 = target: T2, CYP2B6 (Homo sapiens, UniProt P20813); experiment: Inhibition of CYP2B6 at 5 uM; type: ADME
T2 sequence (P20813 whole entry): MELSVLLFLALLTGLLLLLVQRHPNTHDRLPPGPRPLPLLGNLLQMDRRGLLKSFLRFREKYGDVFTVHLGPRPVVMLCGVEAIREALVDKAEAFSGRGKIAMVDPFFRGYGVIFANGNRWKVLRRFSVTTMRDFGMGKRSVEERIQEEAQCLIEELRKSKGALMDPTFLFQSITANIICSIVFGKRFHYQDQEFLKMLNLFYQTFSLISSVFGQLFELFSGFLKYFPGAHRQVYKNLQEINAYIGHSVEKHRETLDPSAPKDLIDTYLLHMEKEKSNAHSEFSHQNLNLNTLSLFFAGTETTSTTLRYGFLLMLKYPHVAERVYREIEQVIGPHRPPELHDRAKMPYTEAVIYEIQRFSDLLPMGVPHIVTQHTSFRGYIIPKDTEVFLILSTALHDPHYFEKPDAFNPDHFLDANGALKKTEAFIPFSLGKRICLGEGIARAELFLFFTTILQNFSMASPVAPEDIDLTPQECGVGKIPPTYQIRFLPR

Brain [7] = experiment: Fraction unbound in rat brain; type: ADME, tissue-based
Rattus norvegicus = species on record: Rattus norvegicus; experiment: Intrinsic clearance in rat; type: ADME, organism-based; conditions: in vivo
[8] = Plasma protein binding in rat; type: ADME, cell-free; conditions: read-out: PPB (converted)
Plasma = experiment: Plasma concentration in rat at 10 mg/kg, po; type: ADME, organism-based; design: dose 10 mg/kg, route oral; conditions: in vivo
Brain [9] = experiment: Drug uptake in rat brain at 10 mg/kg, po; type: ADME, organism-based; design: dose 10 mg/kg, route oral; conditions: in vivo

| EC50 [1] [µM] | Emax [2] [%] | Structure (SMILES) | further results |
| --- | --- | --- | --- |
| > 10 | 23 | CN(C)CCOc1ccc2c(-c3cnn(-c4ccccc4)c3)ccnc2c1 | – |
| 1.1 | 70 | Fc1ccccc1-n1cc(-c2ccnc3ccccc23)cn1 | – |
| 0.19 | 130 | O=C(Oc1ccc2c(-c3cnn(-c4ccccc4)c3)ccnc2c1)N1CCCCC1 | – |
| 6 | 71 | c1ccc(-n2cc(-c3ccnc4cc(OCCN5CCCCC5)ccc34)cn2)cc1 | – |
| 0.22 | 79 | COc1ccc2c(-c3cnn(-c4ccccc4)c3)ccnc2c1 | solubility kinetic [3]: 4.6 µM (≈ 1.39 µg/mL); Drug uptake (Cerebrospinal fluid): < 1 ng/mL; inhibition at 5 µM (CYP3A4): 35%; Kp [4]: 0.8; solubility kinetic [5]: 120 µM (≈ 36.2 µg/mL); logD [6]: 5; inhibition at 5 µM (CYP2B6): 35%; Fu (Brain [7]): 0.1%; CL (Rattus norvegicus): 68 mL/min; fraction unbound [8]: 0.002; Cp (Plasma): 0.22 µg/mL; Drug uptake (Brain [9]): 180 ng/g |
| 1.2 | 40 | Cc1nccc(-c2cnn(-c3ccccc3)c2)c1C | – |
| 0.59 | 100 | Clc1ccc2c(-c3cnn(-c4ccccc4)c3)ccnc2c1 | – |
| 0.5 | 120 | O=C(Oc1ccc2c(-c3cnn(-c4ccccc4)c3)ccnc2c1)N1CCCC1 | – |
| 3.5 | 35 | c1ccc(-n2cc(-c3ncnc4ccccc34)cn2)cc1 | – |
| 0.64 | 110 | c1ccc(COc2ccc3c(-c4cnn(-c5ccccc5)c4)ccnc3c2)cc1 | – |
| 2.9 | 110 | Fc1ccc(-n2cc(-c3ccnc4ccccc34)cn2)cc1 | – |
| 0.48 | 130 | Cc1nn(-c2ccccc2)cc1-c1ccnc2ccccc12 | – |
| > 10 | 23 | OCCCOc1ccc2c(-c3cnn(-c4ccccc4)c3)ccnc2c1 | – |
| 0.39 | 110 | COCCOc1ccc2c(-c3cnn(-c4ccccc4)c3)ccnc2c1 | – |
| 0.55 | 140 | FC(F)(F)c1ccc2c(-c3cnn(-c4ccccc4)c3)ccnc2c1 | – |
| 2.4 | 42 | c1ccc(-n2cc(-c3n[nH]c4ccccc34)cn2)cc1 | – |
| > 10 | 23 | c1ccc(-n2cc(-c3ccnc4cc(OCCCN5CCCCC5)ccc34)cn2)cc1 | – |
| 2.1 | 92 | c1ccc(-n2cc(-c3ccnc4ccccc34)cn2)nc1 | – |
| 10 | 86 | CCNC(=O)Oc1ccc2c(-c3cnn(-c4ccccc4)c3)ccnc2c1 | – |
| > 10 | 6 | c1ccc2c(-c3cn[nH]c3)ccnc2c1 | – |
| 1.8 | 39 | c1ccc(-n2cc(-c3ccnc4cc(OCCN5CCOCC5)ccc34)cn2)cc1 | – |

| Structure (SMILES) | EC50 [1] [µM] | Emax [2] [%] | further results |
| --- | --- | --- | --- |
| CN(C)C(=O)Oc1ccc2c(-c3cnn(-c4ccccc4)c3)ccnc2c1 | 0.95 | 82 | – |
